Consider five compounds from patent publication US20250381183A1, “TARGETING S100A9-ALDH1A1-RETINOIC ACID SIGNALING TO SUPPRESS BRAIN RELAPSE IN EGFR-MUTANT LUNG CANCER” (The Trustees of Columbia University in the City of New York, priority 2022, published 2025).

For experiment [1], the system named is RAR target gene STRA6. Put plainly: STRA6 expression by qRT-PCR in PC9-Tr-BrM cells. Type of experiment: cell-based, human. The settings on record: two days; for inhibition of retinol-induced STRA6 expression: 5 μM retinol and 5 μM antagonist. On the procedure:
(§1) FIG. 13A-FIG. 13B: STRA6 expression was determined by qRT-PCR analysis of Tr-BrM cells from the PC9 model (13(a)) and H1650 model (13(b)), which were treated with either DMSO, retinol or retinol plus different retinoic acid receptor antagonists. Cells were cultured for two days in serum-free RPMI medium with DMSO alone, with 5 μM retinol alone, or medium with both 5 μM retinol and 5 μM antagonists (either the RAR-α antagonist BMS-195614, the RAR-γ antagonist MM-11253, or the pan-RAR antagonist AGN-194310). After two days of culturing, cells were washed and collected for RNA analysis. GAPDH was measured as an internal control. […] For the PC9 model in 13(a), n=8 for vehicle; n=5 for retinol; n=3 for retinol plus the RAR-alpha inhibitor (“RAR-α-inh.”); n=3 for retinol plus the RAR-gamma inhibitor (“RAR-γ-inh.”); n=4 for retinol plus the pan-RAR inhibitor (“pan-RAR-inh.”). For the H1650 model in 13(b), n=7 for all groups.
For orientation: In qPCR the cycle at which signal appears reflects the starting amount.

Experiment [2] concerns RAR target gene STRA6. Put plainly: STRA6 expression by qRT-PCR in H1650-Tr-BrM cells. Type of experiment: cell-based, human. The conditions noted are these: two days; for inhibition of retinol-induced STRA6 expression: 5 μM retinol and 5 μM antagonist. The protocol:
as §1

The test system of experiment [3] is H1975. Put plainly: Cell viability assay, sensitivity to pan-RAR inhibition, H1975. The class given is cell-based, human. The settings on record: H1975, lacks S100A9 and ALDH1A1 expression. The protocol: (§2) FIG. 13C: Cell viability assay for comparing in-vitro sensitivity of the indicated cell lines to pan-RAR-inhibition (AGN194310, abbreviated as “AGN”). Cell viability values are normalized to the vehicle (DMSO)-treated control, presented as the mean values±SEM, and representative of three independent experiments. P-values were determined by two-way ANOVA with Tukey's test.

Experiment [4] relates to HCC4006. Put plainly: Cell viability assay, sensitivity to pan-RAR inhibition, HCC4006. The class given is cell-based, human. The conditions noted are these: HCC4006, lacks S100A9 and ALDH1A1 expression. On the procedure: as §2
Experiment [5] relates to PC9-derivatives. Put plainly: Lung orthotopic (intrathoracic) implantation, PC9-derivatives, AGN194310 treatment. Type of experiment: in vivo, mice. The conditions noted are these: PC9-derived, directly implanted in the lung, treated 2 weeks.
Experiment [6] relates to H1650-derivatives. Put plainly: Lung orthotopic (intrathoracic) implantation, H1650-derivatives, AGN194310 treatment. Type of experiment: in vivo, mice. The conditions noted are these: H1650-derived, directly implanted in the lung, treated 2 weeks. The protocol: FIG. 12K: Schematic representation of the experimental protocol for lung orthotopic injections. H1650-Tr-BrM-lung derivatives stably expressing either Lenti-Con, S100A9i, ALDH1A1i, or S100A9i plus ALDH1A1 o/e were injected in the lung (intrathoracic injections, labeled as “lung orthotopic injection” in the figure). Mice were euthanized at 21 days post tumor-cell injection for analysis.
FIG. 13P-FIG. 13Q: Violin plots depicting normalized photon flux of lung measured by bioluminescence imaging of mice. […] For panel (p): n=8 for Veh, and n=11 for Pan-RARi. For panel (q): n=7 for Veh, and n=8 for Pan-RARi.

Experiment [7] concerns PC9-Tr-BrM cells. Put plainly: Treatment of PC9-Tr-BrM brain metastasis in mice with AGN194310 and/or osimertinib. The settings on record: 0.5 mg/kg body weight/day, five days per week from day 25 to 7 weeks, vs vehicle and osimertinib alone.
The test system of experiment [8] is H1650-Tr-BrM cells. Put plainly: Treatment of H1650-Tr-BrM brain metastasis in mice with AGN194310 and/or osimertinib. The settings on record: 0.5 mg/kg body weight/day, five days per week from day 25 to 7 weeks, vs vehicle and osimertinib alone.
Experiment [9] concerns PC9-Tr-BrM cells. Put plainly: PC9-Tr-BrM (osimertinib-refractory) brain metastasis mouse model, vehicle or osimertinib. Type of experiment: in vivo, immunodeficient mice. The settings on record: PC9-Tr-BrM-injected mice, osimertinib vs vehicle. On the procedure: FIG. 1E: Kaplan-Meier plot for brain-metastasis-progression-free survival of mice injected with PC9-Tr-BrM cells followed by treatment with either vehicle or osimertinib. Data were analyzed using the log-rank test: χ2=1.325, d.f.=1, p-value not significant (ns), n=20 for vehicle-treated mice and 17 for osimertinib-treated mice.
Mice were euthanized at 7 weeks post tumor-cell injection. Scale bars, 200 μm.
To understand the underlying mechanisms of brain relapse using this model, we isolated brain metastatic cells from the relapsed brain of osimertinib-treated mice and designated them PC9-Tr-BrM (Treated Brain Metastatic, FIG. 1d).

Experiment [10] concerns H1650-Tr-BrM cells. Put plainly: H1650-Tr-BrM brain metastasis mouse model, vehicle or osimertinib. The settings on record: H1650-Tr-BrM-injected mice. The class given is in vivo, immunodeficient mice. The protocol: . Data were analyzed using the log-rank test: χ2=2.541, d.f.=1, p-value not significant (ns), n=6 for vehicle-treated mice, and n=4 for osimertinib-treated mice.
. Arrow points to the location of metastatic cells in the brain. Mice were euthanized at 60 days post tumor-cell injection. Scale bars, 200 μm.
FIG. 8H: Quantitative analysis of the percentage of brain tissue sections covered by metastasis from the experiment described in panel (g). […]; We then isolated brain metastatic cells from the osimertinib-treated mice (designated H1650-Tr-BrM), injected them into the arterial circulation of naive immunodeficient mice and treated the mice with either vehicle or osimertinib.

The test system of experiment [11] is phospho-EGFR (Tyr1068). Put plainly: phospho-EGFR immunostaining of brain sections, PC9-BrM model. Type of experiment: in vivo, immunodeficient mice. The conditions noted are these: osimertinib 5 mg/kg/day vs vehicle.
Text: FIG. 2B: Brain sections from mice injected with PC9-BrM cells described in FIG. 1a-b were immunostained using an antibody against phospho-EGFR (Tyr1068). […] The endpoint for vehicle-treated mice was two months post tumor-cell injection (“Vehicle”). The endpoint for osimertinib-treated mice was 4 months post tumor-cell injection for micrometastases (“Micromet”) and 8 months post tumor-cell injection for relapsed metastatic lesion (“Relapsed Met”). For the osimertinib treatment group, mice were administered osimertinib by oral gavage. At 6 hours post treatment, mice were euthanized, and brain tissues were subsequently processed for histological analysis. Representative images of immunohistochemical staining for phospho-EGFR in brain sections are shown. Arrows point to, and dotted line surrounds, the location of metastatic cells in the brain.
FIG. 2C: The pEGFR-immunostained brain sections described in panel (b) were quantitated using automated Qu-Path software to count pEGFR-positive cancer cells that were identified by setting a threshold for signal intensity (1+).
The subject of experiment [12] is phospho-EGFR (Tyr1068). Put plainly: phospho-EGFR immunostaining of brain sections, H1650-BrM model. Type of experiment: in vivo, immunodeficient mice. The conditions noted are these: osimertinib 5 mg/kg/day vs vehicle.
Text: FIG. 9D: Brain sections from mice injected with H1650-BrM cells described in FIG. 8g-h were immunostained using an antibody against phospho-EGFR (Tyr1068). […] Mice were then euthanized, and brain tissues were subsequently processed for histological analysis. Representative images of immunohistochemical staining for phospho-EGFR in brain sections are shown. Dotted lines surround the location of metastatic cells in the brain. Scale bars, 100 μm.
FIG. 9E: The pEGFR-stained brain sections from the H1650-derived model described in panel (d) were quantitated using automated Qu-Path software to count pEGFR-positive cancer cells that were identified by setting a threshold for signal intensity (1+). Data are represented as mean values±SEM.
In experiment [13] the test system is phospho-EGFR (Tyr1068), phospho-ERK (Thr202/Tyr204). The conditions noted are these: PC9-BrM and PC9-Tr-BrM, 6 hours post-treatment, similar in both.
Text: Antibodies against phospho-EGFR (Tyr1068), phospho-ERK (Thr202/Tyr204), total-EGFR, total-ERK and □-actin (loading control) were used. Data are representative of three independent experiments.
The subject of experiment [14] is phospho-EGFR (Tyr1068), phospho-ERK. The settings on record: H1650-BrM and H1650-Tr-BrM, 6 hours post treatment, similar in both.
Text: Antibodies against phospho-EGFR (Tyr1068), phospho-ERK, total-EGFR, total-ERK and β-actin (loading control) were used. Data are representative of three independent experiments.
Experiment [15] deals with EGFR-mutant lung cancer. The conditions noted are these: cited from earlier work.
Where [16] appears, read: serum-free media, 5 μM retinol alone vs DMSO.

For the compound `CCc1ccc(C2=CC(C)(C)Sc3ccc(C#Cc4ccc(C(=O)O)cc4)cc32)cc1` [AGN-194310], the “inhibition of retinol-induced STRA6 expression” value in experiment [1] and in [2] was “dramatically reduced” each time. For the same compound, the loss of viability entry in experiment [3] and in [4] was “did not show dose-dependent loss of viability” throughout. The “lung lesions (normalized photon flux)” value in experiment [5] and in experiment [6] was “modestly reduced” each time. Further, the “brain metastasis (bioluminescence imaging and CK7 metastasis surface area)” value in experiment [7] and in experiment [8] was “striking reduction” each time.

With `CC1(C)CC=C(c2cnc3ccccc3c2)c2cc(C(=O)Nc3ccc(C(=O)O)cc3)ccc21` [BMS195614], the “inhibition of retinol-induced STRA6 expression” value in experiment [1] and in experiment [2] was “only modestly inhibited” each time.

`CC1(C)CCC(C)(C)c2cc(C3(c4ccc5cc(C(=O)O)ccc5c4)SCCS3)ccc21` [MM11253]: the “inhibition of retinol-induced STRA6 expression” value in experiment [1] and in experiment [2] was “only modestly inhibited” in each case.

For the compound `C=CC(=O)Nc1cc(Nc2nccc(-c3cn(C)c4ccccc34)n2)c(OC)cc1N(C)CCN(C)C` [osimertinib], the brain-metastasis-progression-free survival entry in experiment [9] is recorded as “no longer increased”; in [10] (osimertinib vs vehicle), “no longer prolonged”. For the same compound, the “mice with rapid progression to the brain” value in [10] (vehicle or osimertinib) is reported as 100%. Moreover, the “p-EGFR in micro- and relapsed-metastatic brain lesions” value in experiment [11] was “significantly reduced”. Also, the “p-EGFR in brain metastatic lesions” value in experiment [12] is given as “significantly reduced”. The “inhibition of EGFR and ERK phosphorylation” value in [13] and in [14] was “dose-dependent inhibition” each time. For the same compound, the “median progression-free survival (PFS)” value in experiment [15] (first-line treatment, EGFR-mutant metastatic lung cancer patients) is recorded as 18.9 months. Also, in experiment [15] (lung cancer patients treated with osimertinib), the “patients with CNS progression” value is 20%.

Turning to retinal, the STRA6 expression entry in [1] (setting [16]) and in experiment [2] (setting [16]) was “significantly induced” each time.
